These results are taken from ChEMBL document CHEMBL4308839, “Recent Progress in the Discovery of Allosteric Inhibitors of Kidney-Type Glutaminase” (J Med Chem, 2018).

Experiment [1] can be described thus: (§1) Inhibition of mouse brain glutaminase assessed as ammonia formation at 0.1 uM using glutamine as substrate by Nessler's reagent based assay relative to control.
In experiment [2] the target is T1, Glutaminase kidney isoform, mitochondrial (Mus musculus, UniProt D3Z7P3).
T1 sequence (D3Z7P3 whole entry): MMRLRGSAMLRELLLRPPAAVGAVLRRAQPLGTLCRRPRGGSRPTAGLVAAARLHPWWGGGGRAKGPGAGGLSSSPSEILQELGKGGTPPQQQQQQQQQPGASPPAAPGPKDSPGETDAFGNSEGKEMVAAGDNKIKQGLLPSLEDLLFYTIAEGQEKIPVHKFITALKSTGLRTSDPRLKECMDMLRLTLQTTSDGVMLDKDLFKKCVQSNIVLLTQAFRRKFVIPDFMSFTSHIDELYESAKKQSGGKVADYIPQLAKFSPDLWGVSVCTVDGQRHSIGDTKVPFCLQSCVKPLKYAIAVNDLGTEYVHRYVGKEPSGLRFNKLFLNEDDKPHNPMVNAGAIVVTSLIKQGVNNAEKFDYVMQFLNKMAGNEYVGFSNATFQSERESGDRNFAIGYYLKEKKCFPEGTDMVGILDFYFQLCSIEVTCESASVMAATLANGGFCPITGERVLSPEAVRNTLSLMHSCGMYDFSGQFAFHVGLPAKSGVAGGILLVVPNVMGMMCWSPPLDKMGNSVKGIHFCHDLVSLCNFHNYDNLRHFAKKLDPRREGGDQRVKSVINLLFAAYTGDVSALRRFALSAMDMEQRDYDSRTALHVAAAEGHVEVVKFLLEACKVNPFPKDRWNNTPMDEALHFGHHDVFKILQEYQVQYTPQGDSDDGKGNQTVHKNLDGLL
The experiment can be described thus: (§2) Inhibition of mouse kidney glutaminase assessed as ammonia formation at 0.1 uM using glutamine as substrate by Nessler's reagent based assay relative to control.

The target of experiment [3] is T2, Glutaminase kidney isoform, mitochondrial (Homo sapiens, UniProt O94925).
T2 sequence (O94925 whole entry): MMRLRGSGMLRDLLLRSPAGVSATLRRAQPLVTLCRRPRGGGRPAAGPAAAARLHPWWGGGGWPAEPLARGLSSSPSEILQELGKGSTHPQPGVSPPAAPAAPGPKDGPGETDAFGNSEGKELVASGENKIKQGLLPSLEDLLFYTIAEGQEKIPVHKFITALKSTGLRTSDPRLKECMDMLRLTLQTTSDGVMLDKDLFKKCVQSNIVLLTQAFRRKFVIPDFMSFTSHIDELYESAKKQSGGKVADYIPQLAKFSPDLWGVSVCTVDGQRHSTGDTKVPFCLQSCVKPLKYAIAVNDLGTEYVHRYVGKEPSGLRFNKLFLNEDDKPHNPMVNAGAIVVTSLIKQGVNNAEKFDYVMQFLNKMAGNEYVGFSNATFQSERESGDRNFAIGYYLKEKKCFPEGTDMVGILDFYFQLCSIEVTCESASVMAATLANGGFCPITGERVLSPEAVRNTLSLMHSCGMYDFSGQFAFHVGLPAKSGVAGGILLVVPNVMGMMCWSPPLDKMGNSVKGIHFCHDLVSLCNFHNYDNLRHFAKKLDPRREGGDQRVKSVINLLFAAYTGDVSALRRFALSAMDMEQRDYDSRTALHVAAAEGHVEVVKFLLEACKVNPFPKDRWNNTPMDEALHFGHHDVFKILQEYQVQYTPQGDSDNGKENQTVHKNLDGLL
Description: Inhibition of GAC (unknown origin) assessed as NADH formation using 1.8 to 13 mM glutamine as substrate preincubated for 60 mins by resorufin dye based assay.

Experiment [4] addresses T2, Glutaminase kidney isoform, mitochondrial. Description: Inhibition of GAC (unknown origin) assessed as NADH formation using 10 mM glutamine as substrate preincubated for 60 mins.
Experiment [5] has the same target. The experiment can be described thus: Inhibition of kidney-type glutaminase in human BT20 cells assessed as reduction in glutamate level. Type of experiment: cell-based.
Experiment [6] has the same target. Description: Inhibition of GAC (unknown origin) using 1 mM glutamine as substrate preincubated for 10 mins by resorufin dye based assay.
The target of experiment [7] is T1, Glutaminase kidney isoform, mitochondrial. The experiment can be described thus: Inhibition of mouse kidney glutaminase assessed as ammonia formation using glutamine as substrate by Nessler's reagent based assay.
A short description of experiment [8]: Inhibition of mouse brain glutaminase assessed as ammonia formation using glutamine as substrate by Nessler's reagent based assay.
Experiment [9] deals with T2, Glutaminase kidney isoform, mitochondrial. Description: Inhibition of human KGA (63 to 669 residues) preincubated for 15 mins using 50 mM glutamine as substrate by resorufin dye based assay.
The species entered for experiment [10] is Mus musculus. The description is as §1.
The target of experiment [11] is T3, Glutaminase kidney isoform, mitochondrial (Mus musculus) (UniProt D3Z7P3).
T3 sequence (whole entry): T1 sequence (D3Z7P3 whole entry)
The description is as §2.

Experiment [12] deals with T2, Glutaminase kidney isoform, mitochondrial. The experiment can be described thus: Inhibition of human KGA (1 to 669 residues) preincubated for 20 mins using 7 mM glutamine as substrate.

For `O=C(Cc1cccc(OC(F)(F)F)c1)Nc1ccc(N2CCC(c3nnc(NC(=O)Cc4ccccn4)s3)CC2)cn1`, the IC50 in [1] and in experiment [2] was 1000 to 2000 nM each time.
As to `O=C(Cc1ccccn1)Nc1nnc(CC2CC(Cc3nnc(NC(=O)Cc4ccccn4)s3)C2)s1` (centres undefined), in experiment [3], the IC50 is 2000 to 10000 nM.
For the compound `O=C(Cc1ccccn1)Nc1nnc([C@H]2CC[C@H](c3nnc(NC(=O)Cc4ccccn4)s3)C2)s1`, in experiment [3], the IC50 was < 100 nM.
As to `O=C(Cc1ccccc1)Nc1ccc(CCCCc2nnc(NC(=O)Cc3ccccc3)s2)nn1`, the IC50 in experiment [4] was 80 nM.
`O=C(Cc1cccc(OC(F)(F)F)c1)Nc1ccc(C[C@H]2C[C@@H](c3nnc(NC(=O)Cc4ccccn4)s3)C2)nn1`: the IC50 in experiment [5] is 0.2 nM.
For `O=C(Cc1ccccc1)Nc1ccn(CCCCn2cc(C(=O)NCc3cccc(OC(F)(F)F)c3)nn2)c(=O)c1`, in [6], the concentration for half-maximal inhibition (IC50) is ≤ 100 nM.
As for `O=C(Cc1ccccn1)Nc1nnc([C@@H]2CCC[C@H](c3nnc(NC(=O)Cc4ccccn4)s3)C2)s1`, the IC50 in experiment [3] lay within 1000 to 2000 nM.
In the case of `O=C(Cc1ccccc1)Nc1ccc(CCCCn2ccc(NC(=O)Cc3ccccc3)nc2=O)nn1`, the 50% inhibitory concentration (IC50) in [6] was ≤ 100 nM.
Same read-out and setting: with `O=C(Cc1ccccc1)Nc1ccn(CCC(F)Cn2cc(C(=O)NCc3cccc(OC(F)(F)F)c3)nn2)c(=O)c1` (centres undefined) the figure was ≤ 100 nM.
With `O=C(Cc1cccc(OC(F)(F)F)c1)Nc1ccc(CCCCc2nnc(NC(=O)Cc3ccccn3)s2)cn1`, the IC50 in experiment [7] and in experiment [8] was 50 to 100 nM in each case.
Consider `O=C(Cc1ccccc1)Nc1ccn(CCCCc2cc3cc(Cc4ccccc4)[nH]c3nn2)c(=O)c1`, for which the IC50 in [6] was ≤ 100 nM.
The same measure, in the same setting: for `O=C(Cc1cccc(OC(F)(F)F)c1)Nc1ccc(N2CCC(c3nnc(NC(=O)Cc4ccccn4)s3)C2)nn1` (centres undefined) the value was ≤ 100 nM.
`O=C(Cc1ccccn1)Nc1nnc(C[C@H]2CC[C@H](Cc3nnc(NC(=O)Cc4ccccn4)s3)CC2)s1`: the IC50 in experiment [3] lay within 500 to 1000 nM.
Still for that read-out and setting: for `O=C(Cc1ccccc1)Nc1nnc([C@H]2CCC[C@H](c3nnc(NC(=O)Cc4ccccc4)s3)C2)s1` the value was < 100 nM.
The same measure, in the same setting: for `O=C(Cc1ccccn1)Nc1nnc([C@@H]2CC[C@@H](c3nnc(NC(=O)Cc4ccccn4)s3)C2)s1` the value was < 100 nM.
Compound `CO[C@H](C(=O)Nc1ccc(N2CC[C@@H](Nc3cccnn3)C2)nn1)c1cccc(OC(F)F)c1` yielded an IC50 in experiment [9] of 25 nM.
Take `O=C(Cc1cccc(OC(F)(F)F)c1)Nc1ccc(N2CCC(c3nnc(NC(=O)Cc4ccccn4)s3)CC2)nn1`: the IC50 in experiment [1] and in [2] was < 50 nM each time.
As for `CC(=O)Nc1ccc([C@@H]2CCC[C@H](c3ccc(NC(C)=O)nn3)C2)nn1`, the half-inhibitory concentration (IC50) in experiment [3] is < 100 nM.
On to `CC(=O)Nc1ccc([C@H]2CCC[C@H](c3ccc(NC(C)=O)nn3)C2)nn1`, for which the IC50 in [3] lay within 2000 to 10000 nM.
Turning to `O=C(Cc1cccc(OC(F)(F)F)c1)Nc1cnc(CCCCc2nnc(NC(=O)Cc3ccccn3)s2)cn1`, the inhibition in experiment [10] and in experiment [11] was < 25% each time.
Regarding `O=C(Cc1c[nH]c2ccccc12)Nc1nnc(CCCCc2nnc(NC(=O)Cc3c[nH]c4ccccc34)s2)s1`, in experiment [3], the IC50 was < 100 nM.
The same measure, in the same setting: for `O=C(Cc1ccccn1)Nc1ccc([C@@H]2CCC[C@H](c3ccc(NC(=O)Cc4ccccn4)nn3)C2)nn1` the value was < 100 nM.
For `O=C(Cc1ccccc1)Nc1ccn(CCCCc2nnc(NC(=O)Cc3ccccc3)s2)c(=O)c1`, in experiment [6], the IC50 was ≤ 100 nM.
In the case of `O=C(Cc1cccc(OC(F)(F)F)c1)Nc1ccc(C[C@@H]2CC[C@H](c3nnc(NC(=O)Cc4ccccn4)s3)C2)nn1`, the half-inhibitory concentration (IC50) in experiment [5] came to 0.1 nM.
In the case of `O=C(Cc1ccccn1)Nc1nnc([C@@H]2CC[C@H](c3nnc(NC(=O)Cc4ccccn4)s3)C2)s1`, the IC50 in experiment [3] lay in the range of 500 to 1000 nM.
For the compound `O=C(Cc1ccccc1)Nc1ccn(CCCCc2nnc(NC(=O)Cc3ccccc3)s2)c(=O)n1`, the IC50 in experiment [6] is ≤ 100 nM.
Turning to `O=C(Cc1ccccn1)Nc1nnc([C@@H]2CCC[C@@H](c3nnc(NC(=O)Cc4ccccn4)s3)C2)s1`, the IC50 in experiment [3] is 1000 to 2000 nM.
For the compound `O=C(Nc1nnc(N[C@@H]2CCN(c3cccnn3)C2)s1)[C@@H](c1cccc(OC(F)(F)F)c1)N1CCC1`, the IC50 in experiment [9] stood at 100 nM.
For `O=C(Cc1cccc(OC(F)(F)F)c1)Nc1ccc(C2CCN(c3nnc(NC(=O)Cc4ccccn4)s3)C2)nn1` (centres undefined), the half-maximal inhibitory concentration (IC50) in [6] is ≤ 100 nM.
On to `Cn1ccc(CC(=O)Nc2nnc([C@H]3C[C@]4(C[C@H](c5nnc(NC(=O)Cc6ccn(C)n6)s5)C4)C3)s2)n1` (some centres undefined), for which, in experiment [5], the IC50 was 0.5 nM.
`O=C(Nc1nnc(CCOCCc2nnc(NC(=O)c3ccccc3)s2)s1)c1ccccc1` returned an IC50 in experiment [12] of 10200 nM.
Turning to `O=C(Cc1cccc(OC(F)(F)F)c1)Nc1ccc(CC2CC(c3nnc(NC(=O)Cc4ccccn4)s3)C2)nn1` (centres undefined), the IC50 in [1] and in experiment [2] was < 25 nM in each case.
Regarding `CO[C@H](C(=O)Nc1nnc(N[C@@H]2CCN(c3cc(Cl)cnn3)C2)s1)c1ccccc1`, it took 40 nM to reach half-maximal inhibition in experiment [9] (IC50).
For the compound `CN(C)c1ccc(CC(=O)Nc2nnc(CCCCc3nnc(NC(=O)Cc4ccc(N(C)C)cc4)s3)s2)cc1`, in [4], the IC50 stood at 240 nM.
`O=C(Cc1ccccn1)Nc1nnc(CC2CCC(Cc3nnc(NC(=O)Cc4ccccn4)s3)C2)s1` (centres undefined): the IC50 in [3] is 2000 to 10000 nM.
The same measure, in the same setting: for `O=C(Cc1ccccn1)Nc1nnc([C@H]2CCC[C@H](c3nnc(NC(=O)Cc4ccccn4)s3)C2)s1` the value was < 100 nM; for `O=C(CCCC(=O)c1ccccc1)Nc1nnc(CCCCc2nnc(NC(=O)CCCC(=O)c3ccccc3)s2)s1`, < 100 nM.
On to `O=C(NCc1ccccn1)c1cn(CCCCc2nnc(C(=O)NCc3cccc(OC(F)(F)F)c3)s2)nn1`, for which the IC50 in experiment [6] was < 100 nM.
On the same count and under the same terms, for `O=C(Cc1cccc(OC(F)(F)F)c1)Nc1ccc(CCCCc2nnc(C(=O)NCc3ccccn3)s2)nn1` the value was < 100 nM.
As to `O=C(Cc1ccccc1)Nc1ccc(CCCCc2ccc(NC(=O)Cc3ccccc3)nn2)nn1`, in experiment [4], the IC50 worked out at 10 nM.
For `O=C(Cc1cccc(OC(F)(F)F)c1)Nc1ccc(N2CCCC(c3nnc(NC(=O)Cc4ccccn4)s3)C2)nn1` (centres undefined), the IC50 in experiment [1] and in experiment [2] was 50 to 200 nM in each case.
In the case of `O=C(Cc1ccccn1)Nc1nnc(C[C@@H]2C[C@H]2Cc2nnc(NC(=O)Cc3ccccn3)s2)s1` (racemic), in [3], the IC50 was in the range of 500 to 1000 nM.
Take `O=C(Cc1ccccn1)Nc1ccc([C@@H]2CCN(c3nnc(C(=O)NCc4cc(C(F)(F)F)ccn4)s3)C2)nn1`: the IC50 in [6] is ≤ 100 nM.
On the same count and under the same terms, for `O=C(NCc1ccccc1)c1cn(CCCCc2cc3cc(Cc4ccccc4)[nH]c3nn2)nn1` the value was ≤ 100 nM; for `O=C(Cc1ccccc1)Nc1nnc(CCCCc2cc3cc(Cc4ccccc4)[nH]c3nn2)s1`, ≤ 100 nM.
`O=C(Cc1ccccn1)Nc1nnc(C2CCCCC(c3nnc(NC(=O)Cc4ccccn4)s3)C2)s1` (centres undefined): the half-inhibitory concentration (IC50) in [3] is 1000 to 2000 nM.
Turning to `Cc1ccc(CNC(=O)c2cn(CCCCc3cc4cc(-c5ccccc5F)[nH]c4nn3)nn2)cn1`, the IC50 in experiment [6] was ≤ 100 nM.
For the compound `Cn1ccc(CC(=O)Nc2nnc([C@H]3C[C@@]4(C[C@H](c5nnc(NC(=O)Cc6ccn(C)n6)s5)C4)C3)s2)n1` (some centres undefined), the IC50 in [5] came to 2.7 nM.
In [6], `O=C(Cc1ccccn1)Nc1ccc([C@H]2CCN(c3nnc(C(=O)NCc4cc(C(F)(F)F)ccn4)s3)C2)nn1` came in with an IC50 of 100 to 500 nM.
On the same count and under the same terms, for `O=C(Cc1ccccc1)Nc1ccn(CC(F)CCn2cc(C(=O)NCc3cccc(OC(F)(F)F)c3)nn2)c(=O)c1` (centres undefined) the value was ≤ 100 nM.
For `O=C(Cc1ccccn1)Nc1ccc([C@H]2CCC[C@H](c3ccc(NC(=O)Cc4ccccn4)nn3)C2)nn1`, the IC50 in experiment [3] is < 100 nM.
In the case of `O=C(Cc1ccccn1)Nc1ccc(N2CCC(c3nnc(NC(=O)Cc4cccc(OC(F)(F)F)c4)s3)CC2)nn1`, the 50% inhibitory concentration (IC50) in experiment [1] and in experiment [2] was < 50 nM each time.
